Results as given in PMC4899947 (Bioorganic & medicinal chemistry letters, 2016).

What was measured:
human mGlu4 = human mGlu4 (Homo sapiens, UniProt Q14833); experiment: Calcium mobilization mGlu4 PAM assay; format: cell-based
[1] = system: haloperidol-induced catalepsy; experiment: Reversal of haloperidol-induced catalepsy; format: in vivo, rat; conditions: rats; for reversal of haloperidol-induced catalepsy (in words): p.o.
[2] = Plasma and brain samples from the oral HIC study; format: in vivo, rat; conditions: rats
other mGlu receptors = experiment: Selectivity versus the other mGlu receptors

human mGlu4, sequence (Q14833 33-912): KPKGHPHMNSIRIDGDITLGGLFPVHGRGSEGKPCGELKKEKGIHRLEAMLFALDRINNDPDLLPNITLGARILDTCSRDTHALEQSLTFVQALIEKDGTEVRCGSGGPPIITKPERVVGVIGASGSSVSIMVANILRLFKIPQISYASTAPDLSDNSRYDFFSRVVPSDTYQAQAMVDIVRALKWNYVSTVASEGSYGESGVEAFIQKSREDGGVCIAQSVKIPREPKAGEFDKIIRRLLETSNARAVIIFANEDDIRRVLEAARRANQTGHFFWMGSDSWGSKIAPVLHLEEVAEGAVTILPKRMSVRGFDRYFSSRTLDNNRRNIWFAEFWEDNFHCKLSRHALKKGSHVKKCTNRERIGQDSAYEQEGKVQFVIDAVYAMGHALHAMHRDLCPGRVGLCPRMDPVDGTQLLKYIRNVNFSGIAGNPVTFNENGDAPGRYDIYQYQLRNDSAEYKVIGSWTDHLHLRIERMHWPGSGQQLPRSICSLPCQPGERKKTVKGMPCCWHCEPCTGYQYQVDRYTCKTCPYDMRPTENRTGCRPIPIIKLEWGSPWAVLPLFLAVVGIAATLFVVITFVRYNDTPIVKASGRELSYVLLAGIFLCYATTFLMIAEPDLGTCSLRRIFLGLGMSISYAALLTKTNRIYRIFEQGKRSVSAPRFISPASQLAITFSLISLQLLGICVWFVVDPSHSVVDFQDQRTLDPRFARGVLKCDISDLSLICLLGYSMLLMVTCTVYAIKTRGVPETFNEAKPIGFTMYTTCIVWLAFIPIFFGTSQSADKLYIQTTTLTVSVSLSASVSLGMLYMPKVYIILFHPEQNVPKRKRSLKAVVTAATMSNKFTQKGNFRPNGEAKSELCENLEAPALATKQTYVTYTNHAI

Structure (SMILES): Nc1cccnc1C(=O)Nc1cccc(Cl)c1 [Compound 7]
- fold less potent than 6 (human mGlu4; mGlu4 PAM EC50 relative to 6): ~ 7 fold

Structure (SMILES): Nc1cccnc1C(=O)Nc1ccc(N2C(=O)c3ccccc3C2=O)c(Cl)c1 [Compound 17a, N-(3-chloro-4-(1,3-dioxoisoindolin-2-yl)phenyl)-3-aminopicolinamide]
- reversal of haloperidol-induced catalepsy at 1 mg/kg p.o. ([1]; 1 mg/kg p.o., haloperidol 1.5 mg/kg, side-by-side with 6): as efficacious as 6
- reversal of haloperidol-induced catalepsy (in words) ([1]; haloperidol 1.5 mg/kg): robust efficacy
- mGlu4 PAM activity (in words) (human mGlu4): good PAM activity
- total brain level, fold above the rat mGlu4 PAM EC50 [2]: greater than 2 fold
- selectivity versus the other mGlu receptors (other mGlu receptors): excellent selectivity

Structure (SMILES): Cc1cccc2c1C(=O)N(c1ccc(NC(=O)c3ncccc3N)cc1Cl)C2=O [Compound 17d]
- mGlu4 PAM activity (in words) (human mGlu4): good PAM activity

Structure (SMILES): Nc1cccnc1C(=O)Nc1ccc(N2Cc3ccccc3C2=O)c(Cl)c1 [Compound 17e]
- mGlu4 PAM activity (in words) (human mGlu4): good PAM activity

Structure (SMILES): Nc1cccnc1C(=O)Nc1ccc(N2Cc3ccc(Cl)cc3C2=O)c(Cl)c1 [Compound 17g]
- mGlu4 PAM activity (in words) (human mGlu4): devoid of PAM activity

Structure (SMILES): COc1ccc2c(c1)C(=O)N(c1ccc(NC(=O)c3ncccc3N)cc1Cl)C2 [Compound 17h]
- mGlu4 PAM activity (in words) (human mGlu4): good PAM activity

Structure (SMILES): CCc1cnc(Oc2ccc(NC(=O)c3ncccc3N)cc2Cl)nc1 [Compound 17t]
- reversal of haloperidol-induced catalepsy at 3 mg/kg p.o. ([1]; 3 mg/kg p.o., comparable to 6 at 10 mg/kg p.o.): robust reversal
- reversal of haloperidol-induced catalepsy (in words) ([1]; haloperidol 1.5 mg/kg): more efficacious than 6
- total brain level, fold above the rat mGlu4 PAM EC50 [2]: greater than 3.5 fold
- selectivity versus the other mGlu receptors (other mGlu receptors): excellent selectivity

Structure (SMILES): CCc1cnc(Oc2ccc(NC(=O)c3ccncc3N)cc2Cl)nc1 [Compound 19]
- mGlu4 PAM activity (in words) (human mGlu4): devoid of mGlu4 PAM activity

Structure (SMILES): CCc1cnc(Oc2ccc(NC(=O)c3nccnc3N)cc2Cl)nc1 [Compound 20]
- fold loss of potency relative to 17t (human mGlu4; mGlu4 PAM EC50 relative to 17t): ~ 5 fold
